In patent publication US20250333424A1, “ANTIVIRAL COMPOUNDS” (Gilead Sciences, Inc., priority 2024, published 2025):
pEC50: −log10 of the molar value.

System: monocytic THP1 cells infected with HIV VSV-G pseudotyped GFP-NEF reporter virus
Assay: cells
Format: cell-based
Details: Human immunodeficiency virus 1, THP-1, 24 h

Structure (SMILES) | pEC50
Cc1cc(/C=C/C#N)c(C(F)(F)F)c(C)c1Oc1nc(NC23CC(C#N)(C2)C3)nc2nn(C)cc12 [Compound 4, (E)-3-((4-(4-(2-cyanovinyl)-2,6-dimethyl-3-(trifluoromethyl)phenoxy)-2-methyl-2H-pyrazolo[3,4-d]pyrimidin-6-yl)amino)bicyclo[1.1.1]pentane-1-carbonitrile] | 5.83
Cn1cc2c(Oc3c(F)cc(/C=C/C#N)cc3Cl)nc(NC34CC(C#N)(C3)C4)nc2n1 [Compound 5, (E)-3-((4-(2-chloro-4-(2-cyanovinyl)-6-fluorophenoxy)-2-methyl-2H-pyrazolo[3,4-d]pyrimidin-6-yl)amino)bicyclo[1.1.1]pentane-1-carbonitrile] | 7.58
Cc1cc(/C=C/C#N)cc(Cl)c1Oc1nc(NC23CC(C#N)(C2)C3)nc2nn(C)cc12 [Compound 6, (E)-3-((4-(2-chloro-4-(2-cyanovinyl)-6-methylphenoxy)-2-methyl-2H-pyrazolo[3,4-d]pyrimidin-6-yl)amino)bicyclo[1.1.1]pentane-1-carbonitrile] | 7.76
CCc1cc(/C=C/C#N)cc(Cl)c1Oc1nc(NC23CC(C#N)(C2)C3)nc2nn(C)cc12 [Compound 7, (E)-3-((4-(2-chloro-4-(2-cyanovinyl)-6-ethylphenoxy)-2-methyl-2H-pyrazolo[3,4-d]pyrimidin-6-yl)amino)bicyclo[1.1.1]pentane-1-carbonitrile] | 7.67
Cc1cc(/C=C/C#N)c(C)c(C)c1Oc1nc(NC23CC(C#N)(C2)C3)nc2nn(C)cc12 [Compound 8, (E)-3-((4-(4-(2-cyanovinyl)-2,3,6-trimethylphenoxy)-2-methyl-2H-pyrazolo[3,4-d]pyrimidin-6-yl)amino)bicyclo[1.1.1]pentane-1-carbonitrile] | 7.35
Cc1cc(/C=C/C#N)cc(C)c1Oc1nc(NC23CC(C#N)(C2)C3)nc2ncn(C(F)F)c12 [Compound 12, (E)-3-((6-(4-(2-cyanovinyl)-2,6-dimethylphenoxy)-7-(difluoromethyl)-7H-purin-2-yl)amino)bicyclo[1.1.1]pentane-1-carbonitrile] | 8.25
Cc1cc(/C=C/C#N)cc(C)c1Oc1nc(NC23CC(C#N)(C2)C3)nc2nc(C)n(C(F)F)c12 [Compound 13, (E)-3-((6-(4-(2-cyanovinyl)-2,6-dimethylphenoxy)-7-(difluoromethyl)-8-methyl-7H-purin-2-yl)amino)bicyclo[1.1.1]pentane-1-carbonitrile] | 7.93
Cc1cc(/C=C/C#N)cc(C)c1Oc1nc(NC23CC(C#N)(C2)C3)nc2c1nc(C)n2C(F)F [Compound 15, (E)-3-((6-(4-(2-cyanovinyl)-2,6-dimethylphenoxy)-9-(difluoromethyl)-8-methyl-9H-purin-2-yl)amino)bicyclo[1.1.1]pentane-1-carbonitrile] | 6.96
CCc1nc2nc(NC34CC(C#N)(C3)C4)nc(Oc3c(C)cc(/C=C/C#N)cc3C)c2n1C(F)F [Compound 17, (E)-3-((6-(4-(2-cyanovinyl)-2,6-dimethylphenoxy)-7-(difluoromethyl)-8-ethyl-7H-purin-2-yl)amino)bicyclo[1.1.1]pentane-1-carbonitrile] | 7.67
Cc1cc(/C=C/C#N)cc(C)c1Oc1nc(NC23CC(C#N)(C2)C3)nc2[nH]c(=O)n(C)c12 [Compound 24, (E)-3-((6-(4-(2-cyanovinyl)-2,6-dimethylphenoxy)-7-methyl-8-oxo-8,9-dihydro-7H-purin-2-yl)amino)bicyclo[1.1.1]pentane-1-carbonitrile] | 7.49
Cc1cc(/C=C/C#N)cc(C)c1Oc1nc(NC23CC(C#N)(C2)C3)nc2nc(C(F)F)n(C)c12 [Compound 25, (E)-3-((6-(4-(2-cyanovinyl)-2,6-dimethylphenoxy)-8-(difluoromethyl)-7-methyl-7H-purin-2-yl)amino)bicyclo[1.1.1]pentane-1-carbonitrile] | 7.43
Cc1cc(/C=C/C#N)cc(C)c1Oc1nc(NC23CC(C#N)(C2)C3)nc2nc(C(F)F)[nH]c12 [Compound 26, (E)-3-((6-(4-(2-cyanovinyl)-2,6-dimethylphenoxy)-8-(difluoromethyl)-7H-purin-2-yl)amino)bicyclo[1.1.1]pentane-1-carbonitrile] | 6.46
Cc1cc(/C=C/C#N)cc(C)c1Oc1nc(NC23CC(C#N)(C2)C3)nc2c1n(C(F)F)c(=O)n2C(F)F [Compound 28, (E)-3-((6-(4-(2-cyanovinyl)-2,6-dimethylphenoxy)-7,9-bis(difluoromethyl)-8-oxo-8,9-dihydro-7H-purin-2-yl)amino)bicyclo[1.1.1]pentane-1-carbonitrile] | 7.36
Cc1cc(/C=C/C#N)cc(C)c1Oc1nc(NC23CC(C#N)(C2)C3)nc2c1ncn2CC1(C#N)CC1 [Compound 45, (E)-3-((9-((1-cyanocyclopropyl)methyl)-6-(4-(2-cyanovinyl)-2,6-dimethylphenoxy)-9H-purin-2-yl)amino)bicyclo[1.1.1]pentane-1-carbonitrile] | 7.28
COCCNc1nc2nc(NC34CC(C#N)(C3)C4)nc(Oc3c(C)cc(/C=C/C#N)cc3C)c2[nH]1 [Compound 46, (E)-3-((6-(4-(2-cyanovinyl)-2,6-dimethylphenoxy)-8-((2-methoxyethyl)amino)-7H-purin-2-yl)amino)bicyclo[1.1.1]pentane-1-carbonitrile] | 7.05
CCNc1nc2nc(NC34CC(C#N)(C3)C4)nc(Oc3c(C)cc(/C=C/C#N)cc3C)c2[nH]1 [Compound 47, (E)-3-((6-(4-(2-cyanovinyl)-2,6-dimethylphenoxy)-8-(ethylamino)-7H-purin-2-yl)amino)bicyclo[1.1.1]pentane-1-carbonitrile] | 6.93
Cc1cc(/C=C/C#N)cc(C)c1Oc1nc(NC23CC(C#N)(C2)C3)nc2nc(Nc3ccn(C)n3)[nH]c12 [Compound 48, (E)-3-((6-(4-(2-cyanovinyl)-2,6-dimethylphenoxy)-8-((1-methyl-1H-pyrazol-3-yl)amino)-7H-purin-2-yl)amino)bicyclo[1.1.1]pentane-1-carbonitrile] | 6.82
Cc1cc(/C=C/C#N)cc(C)c1Oc1nc(NC23CC(C#N)(C2)C3)nc2nc(C3CCCCC3)[nH]c12 [Compound 51, (E)-3-((6-(4-(2-cyanovinyl)-2,6-dimethylphenoxy)-8-cyclohexyl-7H-purin-2-yl)amino)bicyclo[1.1.1]pentane-1-carbonitrile] | 6.43
Cc1cc(/C=C/C#N)cc(C)c1Oc1nc(NC23CC(C#N)(C2)C3)nc2nc(C3CCOCC3)[nH]c12 [Compound 52, (E)-3-((6-(4-(2-cyanovinyl)-2,6-dimethylphenoxy)-8-(tetrahydro-2H-pyran-4-yl)-7H-purin-2-yl)amino)bicyclo[1.1.1]pentane-1-carbonitrile] | 6.86
Cc1cc(/C=C/C#N)cc(C)c1Oc1nc(NC23CC(C#N)(C2)C3)nc2nc(C3CCCC3)[nH]c12 [Compound 53, (E)-3-((6-(4-(2-cyanovinyl)-2,6-dimethylphenoxy)-8-cyclopentyl-7H-purin-2-yl)amino)bicyclo[1.1.1]pentane-1-carbonitrile] | 6.63
Cc1cc(/C=C/C#N)cc(C)c1Oc1nc(NC23CC(C#N)(C2)C3)nc2nc(C3CCC(F)(F)CC3)[nH]c12 [Compound 54, (E)-3-((6-(4-(2-cyanovinyl)-2,6-dimethylphenoxy)-8-(4,4-difluorocyclohexyl)-7H-purin-2-yl)amino)bicyclo[1.1.1]pentane-1-carbonitrile] | 6.44
Cc1cc(/C=C/C#N)cc(C)c1Oc1nc(NC23CC(C#N)(C2)C3)nc2c1nc(C)n2CCC#N [Compound 57, (E)-3-((9-(2-cyanoethyl)-6-(4-(2-cyanovinyl)-2,6-dimethylphenoxy)-8-methyl-9H-purin-2-yl)amino)bicyclo[1.1.1]pentane-1-carbonitrile] | 6.83
Cc1cc(/C=C/C#N)cc(C)c1Oc1nc(NC23CC(C#N)(C2)C3)nc2nc(-c3cc[nH]n3)[nH]c12 [Compound 63, (E)-3-((6-(4-(2-cyanovinyl)-2,6-dimethylphenoxy)-8-(1H-pyrazol-3-yl)-7H-purin-2-yl)amino)bicyclo[1.1.1]pentane-1-carbonitrile] | 7.20
Cc1cc(/C=C/C#N)cc(C)c1Oc1nc(NC23CC(C#N)(C2)C3)nc2nc(-c3ccn(C)n3)[nH]c12 [Compound 65, (E)-3-((6-(4-(2-cyanovinyl)-2,6-dimethylphenoxy)-8-(1-methyl-1H-pyrazol-3-yl)-7H-purin-2-yl)amino)bicyclo[1.1.1]pentane-1-carbonitrile] | 6.88
Cc1cc(/C=C/C#N)cc(C)c1Oc1nc(NC23CC(C#N)(C2)C3)nc2nc(-c3cn[nH]c3)[nH]c12 [Compound 66, (E)-3-((6-(4-(2-cyanovinyl)-2,6-dimethylphenoxy)-8-(1H-pyrazol-4-yl)-7H-purin-2-yl)amino)bicyclo[1.1.1]pentane-1-carbonitrile] | 6.53
Cc1cc(/C=C/C#N)cc(C)c1Oc1nc(NC23CC(C#N)(C2)C3)nc2nc(Nc3c(C)noc3C)[nH]c12 [Compound 67, (E)-3-((6-(4-(2-cyanovinyl)-2,6-dimethylphenoxy)-8-((3,5-dimethylisoxazol-4-yl)amino)-7H-purin-2-yl)amino)bicyclo[1.1.1]pentane-1-carbonitrile] | 6.64
Cc1cc(/C=C/C#N)cc(C)c1Oc1nc(NC23CC(C#N)(C2)C3)nc2nc(Nc3ccccn3)[nH]c12 [Compound 68, (E)-3-((6-(4-(2-cyanovinyl)-2,6-dimethylphenoxy)-8-(pyridin-2-ylamino)-7H-purin-2-yl)amino)bicyclo[1.1.1]pentane-1-carbonitrile] | 6.56
Cc1cc(/C=C/C#N)cc(C)c1Oc1nc(NC23CC(C#N)(C2)C3)nc2nc(Nc3cccnc3)[nH]c12 [Compound 69, (E)-3-((6-(4-(2-cyanovinyl)-2,6-dimethylphenoxy)-8-(pyridin-3-ylamino)-7H-purin-2-yl)amino)bicyclo[1.1.1]pentane-1-carbonitrile] | 6.30
Cc1cc(/C=C/C#N)cc(C)c1Oc1nc(NC23CC(C#N)(C2)C3)nc2nc(Nc3ccccc3)[nH]c12 [Compound 70, (E)-3-((6-(4-(2-cyanovinyl)-2,6-dimethylphenoxy)-8-(phenylamino)-7H-purin-2-yl)amino)bicyclo[1.1.1]pentane-1-carbonitrile] | 6.38
